This is an account of results in patent US8153795B2, “Substituted 1-oxa-3,8-diazaspiro[4.5]-decan-2-one-compounds and the use thereof for producing drugs” (Gruenenthal GmbH, priority 2005, dated 2012).

The target in the experiment is T1, 5-HT transporter (Rattus norvegicus, UniProt P31652).
T1 construct: from tissue; host or cells: rat brain synaptosomes (P2 fraction) from medulla and pons
In words: 5-HT uptake inhibition in rat brain synaptosomes (medulla and pons), [3H]-5-HT. Type of experiment: biochemical. The text has this: a) Method for Determining Noradrenalin and 5-HT Uptake Inhibition:
Synaptosomes from rat brain regions are freshly isolated for in vitro studies, as described in the publication “The isolation of nerve endings from brain” by E. G. Gray and V. P. Whittaker, J. Anatomy 96, pages 79-88, 1962. The corresponding literature description is hereby introduced as a reference and is deemed to be part of the disclosure.
The tissue (hypothalamus for the determination of noradrenalin uptake inhibition and medulla and pons for the determination of 5-HT uptake inhibition) is homogenised in ice-cooled 0.32 M sucrose (100 mg of tissue/1 mL) in a glass homogeniser with Teflon pestle using five complete up and down strokes at 840 revolutions/minute.
The homogenate is centrifuged at 4° C. for 10 minutes at 1000 g. After subsequent centrifugation at 17000 g for 55 minutes, the synaptosomes (P2 fraction) are obtained, which are resuspended in 0.32 M […] (0.5 mL/100 mg of original weight).
The particular uptake is measured in a 96-well microtitre plate. The volume is 250 μl and the incubation proceeds at room temperature (approx. 20-25° C.) under an O2 atmosphere.
The incubation time is 7.5 minutes for [^3H]-NA and 5 minutes for [^3H]-5-HT. The 96 samples are then filtered through a Unifilter GF/B® microtitre plate (Packard) and washed with 200 mL of incubated buffer using a “Brabdel MPXRI-96T Cell-Harvester”. The Unifilter GF/B plate is dried for 1 hour at 55° C. The plate is then sealed with a Back Seal® (Packard) and 35 μl of scintillation fluid are added per well (Ultima Gold®, Packard). After sealing with a top Seal® (Packard) and establishing an equilibrium (around 5 hours), radioactivity is determined in a “Trilux 1450 Microbeta” (Wallac).
The quantity of protein used in the above determination corresponds to the values known from the literature, as for example described in “Protein measurement with the folin phenol reagent”, Lowry et al., J. Biol. Chem., 193, 265-275, 1951.
A detailed description of the method may additionally be found in the literature, for example in M. Ch. Frink, H.-H. Hennies, W. Engelberger, M. Haurand and B. Wilffert (1996) Arzneim.-Forsch./Drug Res. 46 (III), 11, 1029-1036.

The structures appear in SMILES notation.

T1 sequence (P31652 whole entry): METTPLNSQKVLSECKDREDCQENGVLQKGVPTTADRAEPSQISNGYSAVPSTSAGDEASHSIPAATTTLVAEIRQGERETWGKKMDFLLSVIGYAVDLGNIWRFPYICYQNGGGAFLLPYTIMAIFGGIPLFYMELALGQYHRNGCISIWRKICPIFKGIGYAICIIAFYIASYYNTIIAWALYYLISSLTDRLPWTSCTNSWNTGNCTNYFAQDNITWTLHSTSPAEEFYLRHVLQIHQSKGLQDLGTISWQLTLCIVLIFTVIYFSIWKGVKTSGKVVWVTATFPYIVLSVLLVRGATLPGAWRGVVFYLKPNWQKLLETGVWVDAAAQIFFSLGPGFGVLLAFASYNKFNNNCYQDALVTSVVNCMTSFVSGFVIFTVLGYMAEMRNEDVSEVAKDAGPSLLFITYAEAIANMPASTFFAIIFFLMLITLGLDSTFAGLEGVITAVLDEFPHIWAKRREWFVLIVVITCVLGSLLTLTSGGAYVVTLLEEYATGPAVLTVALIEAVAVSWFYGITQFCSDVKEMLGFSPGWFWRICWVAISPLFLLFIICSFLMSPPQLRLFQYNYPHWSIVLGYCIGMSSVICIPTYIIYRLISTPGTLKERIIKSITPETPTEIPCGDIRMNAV

In the case of `Cc1ccc(CN2CC3(CCN(C(=S)Nc4c(F)c(F)c(F)c(F)c4F)CC3)OC2=O)cc1` [Example 1, 3-(4-methylbenzyl)-2-oxo-1-oxa-3,8-diazaspiro[4.5]decane-8-carbothioic acid pentafluorophenylamide], at 10 µM the inhibition was 66%.
Then `O=C1OC2(CCN(C(=S)NCc3ccccc3)CC2)CN1Cc1ccc(C(F)(F)F)cc1` [Example 3, 2-oxo-3-(4-trifluoromethylbenzyl)-1-oxa-3,8-diazaspiro[4.5]decane-8-carbothioic acid benzylamide], with 69%.
`Cc1cc(C)cc(CN2CC3(CCN(C(=S)NCC4CCCO4)CC3)OC2=O)c1` (stereo not shown) [Example 4, 3-(3,5-dimethylbenzyl)-2-oxo-1-oxa-3,8-diazaspiro[4.5]decane-8-carbothioic acid (tetrahydrofuran-2-ylmethyl)amide] displayed an inhibition at 10 µM of 76%.
`O=C1OC2(CCN(C(=S)NCc3ccccc3)CC2)CN1Cc1ccc(F)c(F)c1` [Example 11, 3-(3,4-difluorobenzyl)-2-oxo-1-oxa-3,8-diazaspiro[4.5]decane-8-carbothioic acid benzylamide] returned an inhibition at 10 µM of 58%.
`CC(NC(=S)N1CCC2(CC1)CN(Cc1ccccc1-c1ccccc1)C(=O)O2)c1ccccc1` (stereo not shown) [Example 12, 3-biphenyl-2-ylmethyl-2-oxo-1-oxa-3,8-diazaspiro[4.5]decane-8-carbothioic acid (1-phenylethyl)amide] registered an inhibition at 10 µM of 60%.
The compound `O=C1OC2(CCN(C(=S)NCc3ccccc3)CC2)CN1Cc1cccc(Br)c1` [Example 16, 3-(3-bromobenzyl)-2-oxo-1-oxa-3,8-diazaspiro[4.5]decane-8-carbothioic acid benzylamide] displayed an inhibition at 10 µM of 54%.
As to `COc1ccc([N+](=O)[O-])cc1CN1CC2(CCN(C(=S)NCC3CCCCC3)CC2)OC1=O` [Example 21, 3-(2-methoxy-5-nitrobenzyl)-2-oxo-1-oxa-3,8-diazaspiro[4.5]decane-8-carbothioic acid cyclohexylmethylamide], the inhibition at 10 µM stood at 55%.
In the case of `N#Cc1cccc(CN2CC3(CCN(C(=S)NCc4ccc(Cl)cc4)CC3)OC2=O)c1` [Example 22, 3-(3-cyanobenzyl)-2-oxo-1-oxa-3,8-diazaspiro[4.5]decane-8-carbothioic acid 4-chlorobenzylamide], the inhibition at 10 µM was 48%.
Compound `COc1ccc([N+](=O)[O-])cc1CN1CC2(CCN(C(=S)NCc3ccccc3)CC2)OC1=O` [Example 23, 3-(2-methoxy-5-nitrobenzyl)-2-oxo-1-oxa-3,8-diazaspiro[4.5]decane-8-carbothioic acid benzylamide] came in with an inhibition at 10 µM of 60%.
In turn, `O=C(Nc1cc(Cl)ccc1Cl)N1CCC2(CC1)CN(Cc1ccccc1-c1ccccc1)C(=O)O2` [Example 25, 3-biphenyl-2-ylmethyl-2-oxo-1-oxa-3,8-diazaspiro[4.5]decane-8-carboxylic acid (2,5-dichlorophenyl)amide] gave an inhibition at 10 µM of 53%.
Then `COc1ccc([N+](=O)[O-])cc1CN1CC2(CCN(C(=O)Nc3cc(F)ccc3F)CC2)OC1=O` [Example 26, 3-(2-methoxy-5-nitrobenzyl)-2-oxo-1-oxa-3,8-diazaspiro[4.5]decane-8-carboxylic acid (2,5-difluorophenyl)amide], with 70%.
Under `CCOC(=O)c1ccc(NC(=O)N2CCC3(CC2)CN(Cc2ccc4ccccc4c2)C(=O)O3)cc1` [Example 30, 4-[(3-naphthalen-2-ylmethyl-2-oxo-1-oxa-3,8-diazaspiro[4.5]decane-8-carbonyl)amino]benzoic acid ethyl ester] stands 65%; under `N#Cc1ccccc1CN1CC2(CCN(C(=O)Nc3cc(F)ccc3F)CC2)OC1=O` [Example 32, 3-(2-cyanobenzyl)-2-oxo-1-oxa-3,8-diazaspiro[4.5]decane-8-carboxylic acid (2,5-difluorophenyl)amide], 56%.
Then `N#Cc1cccc(NC(=O)N2CCC3(CC2)CN(Cc2ccc(SC(F)(F)F)cc2)C(=O)O3)c1` [Example 38, 2-oxo-3-(4-trifluoromethylsulfanylbenzyl)-1-oxa-3,8-diazaspiro[4.5]decane-8-carboxylic acid (3-cyanophenyl)amide], with 52%; and `Cc1ccc(NC(=O)N2CCC3(CC2)CN(Cc2ccc(SC(F)(F)F)cc2)C(=O)O3)cc1[N+](=O)[O-]` [Example 40, 2-oxo-3-(4-trifluoromethylsulfanylbenzyl)-1-oxa-3,8-diazaspiro[4.5]decane-8-carboxylic acid (4-methyl-3-nitrophenyl)amide], with 54%.
On to `CCCCOc1ccc(NC(=O)N2CCC3(CC2)CN(Cc2ccc(I)cc2)C(=O)O3)cc1` [Example 41, 3-(4-iodobenzyl)-2-oxo-1-oxa-3,8-diazaspiro[4.5]decane-8-carboxylic acid (4-butoxyphenyl)amide], for which testing at 10 µM gave an inhibition of 49%.
In turn, `CC(NC(=O)N1CCC2(CC1)CN(Cc1ccccc1)C(=O)O2)c1ccccc1` (stereo not shown) [Example 43, 3-benzyl-2-oxo-1-oxa-3,8-diazaspiro[4.5]decane-8-carboxylic acid (1-phenylethyl)amide] had an inhibition at 10 µM of 49%.
Turning to `Cc1ccc(CN2CC3(CCN(C(=O)NCCc4ccccc4)CC3)OC2=O)cc1` [Example 45, 3-(4-methylbenzyl)-2-oxo-1-oxa-3,8-diazaspiro[4.5]decane-8-carboxylic acid phenethylamide], the inhibition at 10 µM came to 51%.
Then `COc1cccc(NC(=O)N2CCC3(CC2)CN(Cc2ccccc2C(F)(F)F)C(=O)O3)c1` [Example 46, 2-oxo-3-(2-trifluoromethylbenzyl)-1-oxa-3,8-diazaspiro[4.5]decane-8-carboxylic acid (3-methoxyphenyl)amide], with 43%; and `COc1ccc(NC(=O)N2CCC3(CC2)CN(Cc2ccc(C#N)cc2)C(=O)O3)cc1` [Example 47, 3-(4-cyanobenzyl)-2-oxo-1-oxa-3,8-diazaspiro[4.5]decane-8-carboxylic acid (4-methoxyphenyl)amide], with 49%.
Then `CC(NC(=O)N1CCC2(CC1)CN(Cc1ccc(C(F)(F)F)cc1)C(=O)O2)c1cccc2ccccc12` (stereo not shown) [Example 48, 2-oxo-3-(4-trifluoromethylbenzyl)-1-oxa-3,8-diazaspiro[4.5]decane-8-carboxylic acid (1-naphthalen-1-yl-ethyl)amide], with 43%; and `Cc1ccc(NC(=O)N2CCC3(CC2)CN(Cc2ccc(I)cc2)C(=O)O3)cc1[N+](=O)[O-]` [Example 50, 3-(4-iodobenzyl)-2-oxo-1-oxa-3,8-diazaspiro[4.5]decane-8-carboxylic acid (4-methyl-3-nitrophenyl)amide], with 64%; and `COc1ccc([N+](=O)[O-])cc1CN1CC2(CCN(C(=O)Nc3cccc(C#N)c3)CC2)OC1=O` [Example 51, 3-(2-methoxy-5-nitrobenzyl)-2-oxo-1-oxa-3,8-diazaspiro[4.5]decane-8-carboxylic acid (3-cyanophenyl)amide], with 89%.
Regarding `CC(NC(=O)N1CCC2(CC1)CN(Cc1ccccc1C(F)(F)F)C(=O)O2)c1cccc2ccccc12` (stereo not shown) [Example 54, 2-oxo-3-(2-trifluoromethylbenzyl)-1-oxa-3,8-diazaspiro[4.5]decane-8-carboxylic acid (1-naphthalen-1-yl-ethyl)amide], at 10 µM the inhibition was 75%.
Compound `COc1ccc(OC)c(NC(=O)N2CCC3(CC2)CN(Cc2ccc4ccccc4c2)C(=O)O3)c1` [Example 55, 3-naphthalen-2-ylmethyl-2-oxo-1-oxa-3,8-diazaspiro[4.5]decane-8-carboxylic acid (2,5-dimethoxyphenyl)amide] came in with an inhibition at 10 µM of 61%.
Compound `CC(=O)c1cccc(NC(=O)N2CCC3(CC2)CN(Cc2ccc(C#N)cc2)C(=O)O3)c1` [Example 56, 3-(4-cyanobenzyl)-2-oxo-1-oxa-3,8-diazaspiro[4.5]decane-8-carboxylic acid (3-acetylphenyl)amide] yielded an inhibition at 10 µM of 60%.
Compound `COc1ccc(Cl)cc1NC(=O)N1CCC2(CC1)CN(Cc1ccc(C#N)cc1)C(=O)O2` [Example 58, 3-(4-cyanobenzyl)-2-oxo-1-oxa-3,8-diazaspiro[4.5]decane-8-carboxylic acid (5-chloro-2-methoxyphenyl)amide] displayed an inhibition at 10 µM of 49%.
`CCOC(=O)c1cccc(NC(=O)N2CCC3(CC2)CN(Cc2ccccc2C(F)(F)F)C(=O)O3)c1` [Example 59, 3-{[2-oxo-3-(2-trifluoromethylbenzyl)-1-oxa-3,8-diazaspiro[4.5]decane-8-carbonyl]amino}benzoic acid ethyl ester] yielded an inhibition at 10 µM of 47%.

A word on the inhibition: it is the change of the read-out against control, counted positive when it falls.
